{"source": "patent US11180504B2", "about": "(ORCHID PHARMA LTD., priority 2016, dated 2021)", "key": {"[1]": {"test_system": "methicillin-sensitive Staphylococcus aureus", "assay": "MIC by broth micro-dilution (CLSI), methicillin-sensitive S. aureus", "assay_type": "cell-based", "conditions": "Staphylococcus aureus, ATCC 29213 / MSSA, MSSA S. aureus ATCC29213; read-out: MIC"}, "[2]": {"test_system": "carbapenem sensitive Pseudomonas aeruginosa", "assay": "MIC by broth micro-dilution (CLSI), carbapenem sensitive P. aeruginosa", "assay_type": "cell-based", "conditions": "Pseudomonas aeruginosa, ATCC27853, Meropenem susceptible P. aeruginosa ATCC27853; read-out: MIC"}, "[3]": {"test_system": "carbapenemase producing K. pneumoniae", "assay": "MIC by broth micro-dilution (CLSI), carbapenemase producing K. pneumoniae", "assay_type": "cell-based, Klebsiella pneumoniae", "conditions": "Klebsiella pneumoniae, ATCCBAA1705, KPC-2 K. pneumoniae ATCC BAA-1705; read-out: MIC"}, "[4]": {"test_system": "carbapenem sensitive Escherichia coli", "assay": "MIC by broth micro-dilution (CLSI), carbapenem sensitive E. coli", "assay_type": "cell-based", "conditions": "Escherichia coli, ATCC25922, ESBL −ve E. coli ATCC25922; read-out: MIC"}}}
{"smiles": "C[C@@H](NC(=O)Cn1nnc(N)n1)[C@H]1C(=O)N2C(C(=O)O)=C(S[C@@H]3CN[C@H](C(=O)N(C)C)C3)[C@H](C)[C@H]12", "note": "[Example 315, (4R,5S,6R)-6-((R) - 1-(2-(5-amino-2H-tetrazol-2-yl)acetamido)ethyl)-3-((3S,5S)-5-(dimethylcarbamoyl)pyrrolidin-3-ylthio)-4-methyl-7-oxo-1-azabicyclo[3.2.0]hept-2-ene-2-carboxylic acid]", "values": [{"measurement": "MIC", "setting": "[1]", "value": 4, "unit": "µg/mL"}, {"measurement": "MIC", "setting": "[2]", "value": 64, "unit": "µg/mL"}, {"measurement": "MIC", "setting": "[3]", "value": 2, "unit": "µg/mL"}, {"measurement": "MIC", "setting": "[4]", "value": 0.125, "unit": "µg/mL"}]}
{"smiles": "C[C@@H](NC(=O)Cn1nnc(N)n1)[C@H]1C(=O)N2C(C(=O)O)=C(S[C@@H]3CN[C@H](C(=O)N4CC[C@@H](N)C4)C3)[C@H](C)[C@H]12", "note": "[Example 316, (4R,5S,6R)-6-((R) - 1-(2-(5-amino-2H-tetrazol-2-yl)acetamido)ethyl)-3-((3S,5S)-5-((R)-3-aminopyrrolidine-1-carbonyl)pyrrolidin-3-ylthio)-4-methyl-7-oxo-1-azabicyclo[3.2.0]hept-2-ene-2-carboxylic acid]", "values": [{"measurement": "MIC", "setting": "[1]", "value": 4, "unit": "µg/mL"}, {"measurement": "MIC", "setting": "[2]", "value": 16, "unit": "µg/mL"}, {"measurement": "MIC", "setting": "[3]", "value": 16, "unit": "µg/mL"}, {"measurement": "MIC", "setting": "[4]", "value": 0.25, "unit": "µg/mL"}]}
{"smiles": "C[C@@H](NC(=O)Cn1nc(C(F)(F)F)nc1N)[C@H]1C(=O)N2C(C(=O)O)=C(S[C@@H]3CN[C@H](C(=O)N4CC[C@@H](N)C4)C3)[C@H](C)[C@H]12", "note": "[Example 317, (4R,5S,6R)-6-((R) - 1-(2-(5-amino-3-(trifluoromethyl) - 1H-1,2,4-triazol-1-yl)acetamido)ethyl)-3-((3S,5S)-5-((R)-3-aminopyrrolidine-1-carbonyl)pyrolidin-3-ylthio)-4-methyl-7-oxo-1-azabicyclo[3.2.0]hept-2-ene-2-carboxylic acid]", "values": [{"measurement": "MIC", "setting": "[1]", "value": 2, "unit": "µg/mL"}, {"measurement": "MIC", "setting": "[2]", "value": 128, "unit": "µg/mL"}, {"measurement": "MIC", "setting": "[3]", "value": 8, "unit": "µg/mL"}, {"measurement": "MIC", "setting": "[4]", "value": 0.5, "unit": "µg/mL"}]}
{"smiles": "C[C@@H](NC(=O)C(C)(C)n1cnnn1)[C@H]1C(=O)N2C(C(=O)O)=C(S[C@@H]3CN[C@H](C(=O)N(C)C)C3)[C@H](C)[C@H]12", "note": "[Example 318, (4R,5S,6R)-3-((3S,5S)-5-(dimethylcarbamoyl)pyrrolidin-3-ylthio)-4-methyl-6-((R) - 1-(2-methyl-2-(1H-tetrazol-1-yl)propanaraido)ethyl)-7-oxo-1-azabicyclop[3.2.0]hept-2-ene-2-carboxylic acid]", "values": [{"measurement": "MIC", "setting": "[1]", "value": 16, "unit": "µg/mL"}, {"measurement": "MIC", "setting": "[2]", "value": "> 128", "unit": "µg/mL"}, {"measurement": "MIC", "setting": "[3]", "value": 128, "unit": "µg/mL"}, {"measurement": "MIC", "setting": "[4]", "value": 2, "unit": "µg/mL"}]}
{"smiles": "C[C@H]([C@H]1C(=O)N2C(C(=O)O)=C(S[C@@H]3CN[C@H](C(=O)N(C)C)C3)[C@H](C)[C@H]12)n1cnnn1", "note": "[Example 319, (4R,5S,6S)-6-((R)-1-(1H-tetrazol-1-yl)ethyl)-3-((3S,5S)-5-(dimethylcarbamoyl)pyrrolidin-3-ylthio)-4-methyl-7-oxo-1-azabicyclo[3.2.0]hept-2-ene-2-carboxylic acid]", "values": [{"measurement": "MIC", "setting": "[1]", "value": 2, "unit": "µg/mL"}, {"measurement": "MIC", "setting": "[2]", "value": 32, "unit": "µg/mL"}, {"measurement": "MIC", "setting": "[3]", "value": 1, "unit": "µg/mL"}, {"measurement": "MIC", "setting": "[4]", "value": 0.25, "unit": "µg/mL"}]}
{"smiles": "C[C@@H](NC(=O)Cn1nc(C(F)(F)F)nc1N)[C@H]1C(=O)N2C(C(=O)O)=C(S[C@@H]3CN[C@H](C(=O)N(C)C)C3)[C@H](C)[C@H]12", "note": "[Example 320, (4R,5S,6R)-6-((R) - 1-(2-(5-amino-3-(trifluoromethyl) - 1H-1,2,4-triazol-1-yl)acetamido)ethyl)-3-((3S,5S)-5-(dimethylcarbamoyl)pyrrolidin-3-ylthio)-4-methyl-7-oxo-1-azabiayclo[3.2.0]hept-2-ene-2-carboxylic acid]", "values": [{"measurement": "MIC", "setting": "[1]", "value": 2, "unit": "µg/mL"}, {"measurement": "MIC", "setting": "[2]", "value": 128, "unit": "µg/mL"}, {"measurement": "MIC", "setting": "[3]", "value": 4, "unit": "µg/mL"}, {"measurement": "MIC", "setting": "[4]", "value": 1, "unit": "µg/mL"}]}
{"smiles": "C[C@@H](NC(=O)CSc1nnnn1C)[C@H]1C(=O)N2C(C(=O)O)=C(S[C@@H]3CN[C@H](C(=O)N(C)C)C3)[C@H](C)[C@H]12", "note": "[Example 321, (4R,5S,6R)-3-((3S,5S)-5-(dimethylcirbamoyl)pyrrolidin-3-ylthio)-4-methyl-6-((R) - 1-(2-(1-methyl-1H-tetrazol-5-ylthio)acetamido)ethyl)-7-oxo-1-azabicyclo[3.2.0]hept-2-ene-2-carboxylic acid]", "values": [{"measurement": "MIC", "setting": "[1]", "value": 2, "unit": "µg/mL"}, {"measurement": "MIC", "setting": "[2]", "value": "> 128", "unit": "µg/mL"}, {"measurement": "MIC", "setting": "[3]", "value": 8, "unit": "µg/mL"}, {"measurement": "MIC", "setting": "[4]", "value": 1, "unit": "µg/mL"}]}
{"smiles": "C[C@@H](NC(=O)[C@@H](N)Cn1cnnn1)[C@H]1C(=O)N2C(C(=O)O)=C(S[C@@H]3CN[C@H](C(=O)N(C)C)C3)[C@H](C)[C@H]12", "note": "[Example 322, (4R,5S,6R)-6-((R) - 1-((S)-2-amino-3-(1H-tetrazol-1-yl)propanamido)ethyl)-3-((3S,5S)-5-(dimethylcarbamoyl)pyrrolidin-3-ylthio)-4-methyl-7-oxo-1-azabicyclo[3.2.0]hept-2-ene-2-carboxylic acid]", "values": [{"measurement": "MIC", "setting": "[1]", "value": 16, "unit": "µg/mL"}, {"measurement": "MIC", "setting": "[2]", "value": "> 128", "unit": "µg/mL"}, {"measurement": "MIC", "setting": "[3]", "value": 16, "unit": "µg/mL"}, {"measurement": "MIC", "setting": "[4]", "value": 2, "unit": "µg/mL"}]}
{"smiles": "C[C@@H](NC(=O)[C@@H](N)Cn1ncnn1)[C@H]1C(=O)N2C(C(=O)O)=C(S[C@@H]3CN[C@H](C(=O)N(C)C)C3)[C@H](C)[C@H]12", "note": "[Example 323, (4R,5S,6R)-6-((R) - 1-((S)-2-amino-3-(2H-tetrazol-2-yl)propanamido)ethyl)-3-((3S,5S)-5-(dimethylcarbamoyl)pyrrolidin-3-ylthio)-4-methyl-7-oxo-1-azabicyclo[3.2.0]hept-2-ene-2-carboxylic acid]", "values": [{"measurement": "MIC", "setting": "[1]", "value": 16, "unit": "µg/mL"}, {"measurement": "MIC", "setting": "[2]", "value": "> 128", "unit": "µg/mL"}, {"measurement": "MIC", "setting": "[3]", "value": 8, "unit": "µg/mL"}, {"measurement": "MIC", "setting": "[4]", "value": 2, "unit": "µg/mL"}]}
{"smiles": "C[C@@H](NC(=O)Cn1cnnn1)[C@H]1C(=O)N2C(C(=O)O)=C(S[C@@H]3CN[C@H](C(=O)N4CC[C@H](N)C4)C3)[C@H](C)[C@H]12", "note": "[Example 324]", "values": [{"measurement": "MIC", "setting": "[1]", "value": 4, "unit": "µg/mL"}, {"measurement": "MIC", "setting": "[2]", "value": 4, "unit": "µg/mL"}, {"measurement": "MIC", "setting": "[3]", "value": 4, "unit": "µg/mL"}, {"measurement": "MIC", "setting": "[4]", "value": 0.5, "unit": "µg/mL"}]}
{"smiles": "CO/N=C(\\C(=O)N[C@H](C)[C@H]1C(=O)N2C(C(=O)O)=C(S[C@@H]3CN[C@H](C(=O)N(C)C)C3)[C@H](C)[C@H]12)c1csc(N)n1", "note": "[Example 325, (4R,5S,6R)-6-((R) - 1-((Z)-2-(2-aminothiazol-4-yl)-2-(methoxyimino)acetamido)ethyl)-3-((3S,5S)-5-(dimethylcarbamoyl)pyrrolidin-3-ylthio)-4-methyl-7-oxo-1-azabicyclo[3.2.0]hept-2-ene-2-carboxylic acid]", "values": [{"measurement": "MIC", "setting": "[1]", "value": 8, "unit": "µg/mL"}, {"measurement": "MIC", "setting": "[2]", "value": "> 128", "unit": "µg/mL"}, {"measurement": "MIC", "setting": "[3]", "value": 64, "unit": "µg/mL"}, {"measurement": "MIC", "setting": "[4]", "value": 4, "unit": "µg/mL"}]}
{"smiles": "C[C@H]([C@H]1C(=O)N2C(C(=O)O)=C(S[C@@H]3CN[C@H](C(=O)N(C)C)C3)[C@H](C)[C@H]12)n1nnc(N)n1", "note": "[Example 326, (4R,5S,6S)-6-((R) - 1-(5-amino-2H-tetrazol-2-yl)ethyl)-3-((3S,5S)-5-(dimethylcarbamoyl)pyrrolidin-3-ylthio)-4-methyl-7-oxo-1-azabicyclo[3.2.0]hept-2-ene-2-carboxylic acid]", "values": [{"measurement": "MIC", "setting": "[1]", "value": 2, "unit": "µg/mL"}, {"measurement": "MIC", "setting": "[2]", "value": 64, "unit": "µg/mL"}, {"measurement": "MIC", "setting": "[3]", "value": 16, "unit": "µg/mL"}, {"measurement": "MIC", "setting": "[4]", "value": 1, "unit": "µg/mL"}]}
{"smiles": "C[C@H]([C@H]1C(=O)N2C(C(=O)O)=C(S[C@@H]3CN[C@H](C(=O)N4CC[C@@H](N)C4)C3)[C@H](C)[C@H]12)n1nnc(N)n1", "note": "[Example 327, (4R,5S,6S)-6-((R) - 1-(5-amino-2H-tetrazol-2-yl)ethyl)-3-((3S,5S)-5-((R)-3-aminopyrrolidine-1-carbonyl)pyrrolidin-3-ylthio)-4-methyl-7-oxo-1-azabicyclo[3.2.0]hept-2-ene-2-carboxylic acid]", "values": [{"measurement": "MIC", "setting": "[1]", "value": 1, "unit": "µg/mL"}, {"measurement": "MIC", "setting": "[2]", "value": 64, "unit": "µg/mL"}, {"measurement": "MIC", "setting": "[3]", "value": 32, "unit": "µg/mL"}, {"measurement": "MIC", "setting": "[4]", "value": 2, "unit": "µg/mL"}]}
